The test relates to dendritic cells. Conditions: FCCP incorporated in PLGA-G4 or PLGA-G4-cyclodextrin nanoparticles; FIG. 8.

The structures appear in SMILES notation.

Method: The prepared nanoparticles were tested for their ability to disrupt endosomes. Particles co-encapsulating the OVA peptide or GFP associated with the dendrimer were incubated at a concentration of 50 μg/ml with 1E5 BMDCs for 24 hours. Liposomal disruption was assessed both qualitatively via fluorescence microscopy of GFP in the cytosol or quantitatively by amount of OVA antigen presented via MHC Class I. Antigen presentation on Class I MHC takes place via cytosolic transport and OVA peptide/MHC Class I was detected specifically using the antibody 24D16-PE.

As to `N#CC(C#N)=NNc1ccc(OC(F)(F)F)cc1` [FCCP, carbonyl cyanide 4-(trifluoromethoxy) phenylhydrazone], the “ability to disrupt endosomes” value was “significantly enhances”.
